Results as given in patent US20260151517A1, “SOMATOSTATIN RECEPTOR-TARGETING RADIOPHARMACEUTICALS AND USES THEREOF” (Nuclidium AG, priority 2024, published 2026).
*1 amine or outer side, *2 acyl side, *3 side chain or, on linkers, in order; H or OH if unused. Where a SMILES comes first, the peptide text is derived from it. Bridges are numbered along the chain shown (N, C = ends). [ ]: non-standard residue; d: D form. The star is where a group is joined. NODAGA = O=C(O)CN1CCN(CC(=O)O)CCN(C(CCC(=O)*)C(=O)O)CC1; X1 = NC(=O)Nc1ccc(CC(N[*:1])C(=O)[*:2])cc1; Phe(4-Cl) = N[CH](Cc1ccc(Cl)cc1)C(=O)O

Test: in vivo
Set-up: species or system mice
Settings: athymic nude Foxn1^nu, mouse, iv, 13 MBq, total radioactivity
Protocol: Dynamic PET scans were acquired for 1 hour post-injection of the investigated radiopharmaceutical. The mice were euthanized using carbon dioxide at 4 hours post-injection, the bladder was mechanically emptied, and static PET scans were acquired for 30 min. PET images were obtained using the β-CUBE PET scanner system (MOLECUBES) and were decay corrected and reconstructed with the VivoQuant software version 4.0. Tomograms and helical CT scans of the whole mouse were first acquired using a NanoSPECT/CTTM scanner (Bioscan Inc.). CT images were reconstructed using CTReco (version r1.146), resulting in a pixel size of 0.2 mm. InVivoScope (version 1.43, Bioscan Inc.) software was used to generate the maximum intensity projection (MIP) of the co-registered PET/CT images presented in FIG. 10.

**Q.** For `CC(O)C1NC(=O)C(CCCCN)NC(=O)C(Cc2ccc(NC(N)=O)cc2)NC(=O)C(Cc2ccc(O)cc2)NC(=O)C(NC(=O)C(Cc2ccc(Cl)cc2)NC(=O)CCC(C(=O)O)N2CCN(CC(=O)O)CCN(CC(=O)O)CC2)CSSCC(C(=O)NC(Cc2ccc(O)cc2)C(N)=O)NC1=O` (stereo not shown) [[^61Cu]Cu-NODAGA-LM3, metal not drawn] ({NODAGA}-[Phe(4-Cl)]CY[X1]KTCY-NH2; disulfide 2-7; configuration not given here), which tissue to tissue ratio is on record?
**A.** The tissue to tissue ratio was 4.
